The text below walks through data of patent US20250109118A1, “HETEROCYCLIC COMPOUNDS AS SHP2 INHIBITORS, COMPOSITIONS COMPRISING THE HETEROCYCLIC COMPOUND, AND METHODS OF USE THEREOF” (JS INNOMED HOLDINGS LTD., priority 2021, published 2025).

The IC50 is the concentration needed to halve the response being measured.

In this experiment the test system is MiaPaCa-2 cells. In words: MiaPaCa-2 Cell proliferation assay in 3D culture (CCK8). Type of experiment: cell-based. Particulars: Homo sapiens, MIA PaCa-2, 120 h; 3D spheroid culture, 5 days with compound, CCK8 readout. As to the method: MiaPaCa-2 Cell proliferation assay in 3D culture. To evaluate cell viability, MiaPaCa-2 cells in logarithmic growth phase were seeded at optimal density and grown in as spheroids. Cells were incubated for 24 hours prior to the addition of different concentrations of the compounds. Cells were cultured with the compounds for 5 days and the cell viability was assessed using CCK8. Briefly, 2500 cells were seeded in round bottom ultra-low attachment 96 well plates (coming) in growth media supplemented with 10% FBS and incubated at 37° C. for 24 hours. The compounds were dissolved in DMSO (Sigma) to obtain 10 mM stock solution. Then the compounds were serially diluted in 3-fold to ten concentrations; 5 μL of the dilution above was transferred to 95 uL culture media to obtain the 50× compound stock solution; 4 uL of the 50× compound above was then transferred to the wells containing cells with 196 μL of the culture medium to obtain the final 1× concentration. The final concentration of DMSO was 0.1%. Spheroid cells were incubated in compounds for 5 days. Then 20 μL WST-8 solution (DOJINDO, Cell Counting KIT-8) was added to each well. The plates were further incubated at 37° C. for 1.5 hours, and then absorbance at 450 nm was measured using a microplate reader. Each compound was tested in triplicate and the IC50 value was calculated using GraphPad Prism.
The IC50 values of for Compounds disclosed are listed in Table 2, A: ≤500 nM; B: >500 nM and ≤5 μM; C: >5 μM and ≤50 μM; and D: >50 μM.
In the case of `C[C@@H]1OCC2(CCN(c3cnc(Sc4cccc(NC(=O)NS(=O)(=O)c5ccncc5)c4Cl)cn3)CC2)[C@@H]1N` [Example 72, N-((3-((5-((3S,4S)-4-amino-3-methyl-2-oxa-8-azaspiro[4.5]decan-8-yl)pyrazin-2-yl)thio)-2-chlorophenyl)carbamoyl)pyridine-4-sulfonamide], the IC50 was no more than 500 nM.
The same measure for `C[C@@H]1OCC2(CCN(c3cnc(Sc4cccc(NC(=O)NS(=O)(=O)C5CCOCC5)c4Cl)cn3)CC2)[C@@H]1N` [Example 68, N-((3-((5-((3S,4S)-4-amino-3-methyl-2-oxa-8-azaspiro[4.5]decan-8-yl)pyrazin-2-yl)thio)-2-chlorophenyl)carbamoyl)tetrahydro-2H-pyran-4-sulfonamide]: no more than 500 nM.
Turning to `C[C@@H]1OCC2(CCN(c3cnc(Sc4cncc(NC(=O)NS(=O)(=O)c5ccccc5)c4Cl)cn3)CC2)[C@@H]1N` [Example 60, N-((5-((5-((3S,4S)-4-amino-3-methyl-2-oxa-8-azaspiro[4.5]decan-8-yl)pyrazin-2-yl)thio)-4-chloropyridin-3-yl)carbamoyl)benzenesulfonamide], the IC50 lay in the range of 500 to 5000 nM.
The same measure for `C[C@@H]1OCC2(CCN(c3cnc(Sc4cccc(NC(=O)NS(=O)(=O)C5CCCCC5)c4Cl)cn3)CC2)[C@@H]1N` [Example 69, N-((3-((5-((3S,4S)-4-amino-3-methyl-2-oxa-8-azaspiro[4.5]decan-8-yl)pyrazin-2-yl)thio)-2-chlorophenyl)carbamoyl)cyclohexanesulfonamide]: no more than 500 nM; for `C[C@@H]1OCC2(CCN(c3cnc(Sc4cccc(NC(=O)NS(=O)(=O)c5ccccc5F)c4Cl)cn3)CC2)[C@@H]1N` [Example 10, N-((3-((5-((3S,4S)-4-amino-3-methyl-2-oxa-8-azaspiro[4.5]decan-8-yl)pyrazin-2-yl)thio)-2-chlorophenyl)carbamoyl)-2-fluorobenzenesulfonamide]: no more than 500 nM.
The same measure for `C[C@@H]1OCC2(CCN(c3ncc(Sc4ccnc(NC(=O)NS(=O)(=O)c5ccccc5)c4Cl)c4nncn34)CC2)[C@@H]1N` [Example 15, N-((4-((5-((3S,4S)-4-amino-3-methyl-2-oxa-8-azaspiro[4.5]decan-8-yl)[1,2,4]triazolo[4,3-c]pyrimidin-8-yl)thio)-3-chloropyridin-2-yl)carbamoyl)benzenesulfonamide]: 500 to 5000 nM.
The same measure for `CC1(CN)CCN(c2cnc(Sc3cccc(C(=O)NS(=O)(=O)C4CCCC4)c3Cl)c(N)n2)CC1` [Example 44, 3-((3-amino-5-(4-(aminomethyl)-4-methylpiperidin-1-yl)pyrazin-2-yl)thio)-2-chloro-N-(cyclopentylsulfonyl)benzamide]: no more than 500 nM; for `C[C@@H]1OCC2(CCN(c3cnc(Sc4ccnc(NC(=O)NS(=O)(=O)c5ccc(F)cc5)c4Cl)cn3)CC2)[C@@H]1N` [Example 53, N-((4-((5-((3S,4S)-4-amino-3-methyl-2-oxa-8-azaspiro[4.5]decan-8-yl)pyrazin-2-yl)thio)-3-chloropyridin-2-yl)carbamoyl)-4-fluorobenzenesulfonamide]: no more than 500 nM.
Regarding `C[C@@H]1OCC2(CCN(c3cnc(Sc4cccc(NC(=O)NS(=O)(=O)C5CCCC5)c4Cl)cn3)CC2)[C@@H]1N` [Example 73, N-((3-((5-((3S,4S)-4-amino-3-methyl-2-oxa-8-azaspiro[4.5]decan-8-yl)pyrazin-2-yl)thio)-2-chlorophenyl)carbamoyl)cyclopentanesulfonamide], the IC50 is no more than 500 nM.
Turning to `C[C@@H]1OCC2(CCN(c3cnc(Sc4ccnc(NC(=O)NS(=O)(=O)c5cncc(F)c5)c4Cl)cn3)CC2)[C@@H]1N` [Example 58, N-((4-((5-((3S,4S)-4-amino-3-methyl-2-oxa-8-azaspiro[4.5]decan-8-yl)pyrazin-2-yl)thio)-3-chloropyridin-2-yl)carbamoyl)-5-fluoropyridine-3-sulfonamide], the IC50 is no more than 500 nM.
